Consider 21 molecules from patent US6380194B1 (Janssen Pharmaceutica N.V., priority 1996, dated 2002).

Data set [1] is described as follows: Cytotoxicity in mock-infected MT-4 cells (MTT). As to conditions: human. Here is the method:
(§1) A rapid, sensitive and automated assay procedure was used for the in vitro evaluation of anti-HIV agents. An […] T4-cell line, MT-4, which was previously shown (Koyanagi et al., Int. J. Cancer, 36, 445-451, 1985) to be highly susceptible to and permissive for HIV infection, served as the target cell line. Inhibition of the HIV-induced cytopathic effect was used as the end point. The viability of both HIV- and mock-infected cells was assessed spectrophotometrically via the in situ reduction of 3-(4,5-dimethylthiazol-2-yl)-2,5-diphenyltetrazolium bromide (MTT). The 50% cytotoxic concentration (CC50 in μM) was defined as the concentration of compound that reduced the absorbance of the mock-infected control sample by 50%. The percent protection achieved by the compound in HIV-infected cells was calculated by the following formula: [formula]
(§2) whereby (ODT)HIV is the optical density measured with a given concentration of the test compound in HIV-infected cells; (ODC)HIV is the optical density measured for the control untreated HIV-infected cells; (ODC)MOCK is the optical density measured for the control untreated mock-infected cells; all optical density values were determined at 540 nm. The dose achieving 50% protection according to the above formula was defined as the 50% inhibitory concentration (IC50 in μM). The ratio of CC50 to IC50 was defined as the selectivity index (SI).

The next data set relates to HIV-1. The data set can be described thus: Inhibition of HIV-induced cytopathic effect in MT-4 cells (MTT). As to conditions: dose achieving 50% protection of HIV-infected MT-4 cells, mean, number of experiments in brackets. The class given is cell-based. On the procedure: as §1, §2
For a further data set, the system named is mock-infected MT-4 cells. The data set can be described thus: Cytotoxicity in mock-infected MT-4 cells (MTT). Here is the method:
as §1, §2

The mark [2] stands for this setting: Human immunodeficiency virus 1, MT4.

SMILES strings stand for the structures.

In general, CC50 refers to the concentration that lowers cell viability or growth by half. A high value points to lower toxicity to the cells. On to `N#Cc1ccc(Nc2nc(N)nc(Cc3c(Cl)cccc3Cl)n2)cc1` [Compound 1, 4-[[4-amino-6-[(2,6-dichlorophenyl)methyl]-1,3,5-triazin-2-yl]amino]benzonitrile], for which, in data set [1] (mock-infected MT-4 cells), the cytotoxic concentration (CC50) was above 100 µM.
Still for that read-out and setting: to `N#Cc1ccc(Nc2nc(Cc3c(Cl)cccc3Cl)nc(NC(=N)N)n2)cc1` [Compound 20, N-[4-[(4-cyanophenyl)amino]-6-[(2,6-dichlorophenyl)methyl]-1,3,5-triazin-2-yl]-guanidine] belongs 4.3 µM.
Same read-out and setting: to `CC(C)NC(=O)Nc1nc(Cc2c(Cl)cccc2Cl)nc(Nc2ccc(C#N)cc2)n1` [Compound 6, N-[4-[(4-cyanophenyl)amino]-6-[(2,6-dichlorophenyl)methyl]-1,3,5-triazin-2-yl]-N′-(1-methylethyl)urea] belongs above 100 µM; to `N#Cc1ccc(Nc2nc(N)nc(Cc3c(Cl)ccc4[nH]ccc34)n2)cc1` [Compound 8, 4-[[4-amino-6-[(5-chloro-1H-indol-4-yl)methyl]-1,3,5-triazin-2-yl]amino]benzonitrile], 14.4 µM; to `CC(=O)Nc1nc(Cc2c(Cl)cccc2Cl)nc(Nc2ccc(C#N)cc2)n1` [Compound 22, N-[4-[(4-cyanophenyl)amino]-6-[(2,6-dichlorophenyl)methyl]-1,3,5-triazin-2-yl]-acetamide], above 100 µM.
The term IC50 denotes the midpoint of a concentration-inhibition curve. Lower therefore signals inhibition by little substance. Molecule `N#Cc1ccc(Nc2nc(Cc3c(Cl)cccc3Cl)nc(NC(CCO)C(N)=O)n2)cc1` (racemic) [Compound 34, (±)-2-[[4-[(4-cyanophenyl)amino]-6-[(2,6-dichlorophenyl)amino]-6-[(2,6-dichlorophenyl)methyl]-1,3,5-triazin-2-yl]amino-4-hydroxybutanamide] registered an IC50 with HIV-1 of 57 nM. Besides, the 50% cytotoxic concentration (CC50) in the data set on mock-infected MT-4 cells was 42.3 µM.
In the same order, the values of `CCOc1cccc(Cc2nc(N)nc(Nc3ccc(C#N)cc3)n2)c1` [Compound 48] are 74 nM and above 20 µM.
Consider `CN(C)c1nc(Cc2c(Cl)cccc2Cl)nc(N(c2ccc(C#N)cc2)c2ccc(C#N)cc2)n1` [Compound 38, 4,4′-[[4-[(2,6-dichlorophenyl)methyl]-6-(dimethylamino)-1,3,5-triazin-2-yl]imino]bisbenzonitrile], for which the half-maximal cytotoxic concentration (CC50) in data set [1] (mock-infected MT-4 cells) was above 100 µM.
In the data set on HIV-1 (setting [2]), `COC(=O)CN(c1ccc(C#N)cc1)c1nc(N)nc(Cc2c(Cl)cccc2Cl)n1` [Compound 39] returned an IC50 of 78 nM. The molecule further showed a cytotoxic concentration (CC50) in data set [1] above 20 µM.
For the molecule `N#Cc1ccc(Nc2nc(Cc3c(Cl)cccc3Cl)nc(NCCCNC(N)=O)n2)cc1` [Compound 23, N-[3-[[4-[(4-cyanophenyl)amino]-6-[(2,6-dichlorophenyl)methyl]-1,3,5-triazin-2-yl]amino]propyl]urea], the cytotoxic concentration (CC50) in data set [1] (mock-infected MT-4 cells) stood at 36.7 µM.
As to `N#Cc1ccc(Nc2nc(Cc3c(Cl)cccc3Cl)nc(NN)n2)cc1` [Compound 15, 4-[[4-[(2,6-dichlorophenyl)methyl]-6-hydrazino-1,3,5-triazin-2yl]amino]benzonitrile], it took 44.6 µM to reach half-maximal cytotoxicity in data set [1] (mock-infected MT-4 cells) (CC50).
With `CN(C)C=Nc1nc(Cc2c(Cl)cccc2Cl)nc(Nc2ccc(C#N)cc2)n1` [Compound 62, 4-[[4-[(2,6-dichlorophenyl)methyl]-6-[[(dimethylamino)methylene]amino]-1,3,5-triazin-2-yl]amino]benzonitrile], the CC50 in data set [1] (mock-infected MT-4 cells) is above 100 µM.
With `N#Cc1ccc(Nc2nc(Cc3c(Cl)cccc3Cl)nc(NCC(O)CO)n2)cc1` (racemic) [Compound 26, (±)-4-[[4-[(2,6-dichlorophenyl)methyl]-6-[(2,3-dihydroxypropyl)amino]-1,3,5-triazin-2-yl]amino]benzonitrile], inhibition in the data set on HIV-1 (setting [2]) was half-maximal at 68 nM (IC50). In data set [1] (mock-infected MT-4 cells), this molecule registered a CC50 of 59.7 µM.
Consider `COc1cccc(Cc2nc(N)nc(Nc3ccc(C#N)cc3)n2)c1` [Compound 47], for which, in the data set on HIV-1, half-maximal inhibition (IC50) required 82 nM. This molecule also came in with a CC50 in the data set on mock-infected MT-4 cells above 20 µM.
In the case of `N#Cc1ccc(Nc2nc(Cc3c(Cl)cccc3Cl)nc(NCC(N)=O)n2)cc1` [Compound 14, [N-[4-[(4-cyanophenyl)amino]-6-[(2,6-dichlorophenyl)methyl]-1,3,5-triazin-2-yl]]aminoacetamide], the 50% cytotoxic concentration (CC50) in data set [1] (mock-infected MT-4 cells) came to 9.1 µM.
On to `CN(C)CCNc1nc(Cc2c(Cl)cccc2Cl)nc(Nc2ccc(C#N)cc2)n1` [Compound 29], for which the IC50 in the data set on HIV-1 stood at 50 nM. In other words, the double-digit nanomolar range.
For the molecule `CC(=N)Nc1nc(Cc2c(Cl)cccc2Cl)nc(Nc2ccc(C#N)cc2)n1` [Compound 28], the IC50 in the data set on HIV-1 came out at 3 nM. In the data set with mock-infected MT-4 cells, this molecule registered a CC50 above 100 µM.
For the molecule `NC(=O)c1ccc(Nc2nc(N)nc(Cc3c(Cl)ccc4[nH]ccc34)n2)cc1` [Compound 9, 4-[[4-amino-6-[(5-chloro-1H-indol-4-yl)methyl]-1,3,5-triazin-2-yl]amino]benzamide], it took 54.4 µM to reach half-maximal cytotoxicity in data set [1] (mock-infected MT-4 cells) (CC50).
In the data set with HIV-1, `N#Cc1ccc(Nc2nc(N)nc(C(CC3CC3)c3c(Cl)cccc3Cl)n2)cc1` (racemic) [Compound 61] gave an IC50 of 6900 nM. In the data set with mock-infected MT-4 cells, half-maximal cytotoxicity (CC50) was put at 53.4 µM.
Molecule `N#Cc1ccc(Nc2nc(Cc3c(Cl)cccc3Cl)nc(NCC(=O)O)n2)cc1` [Compound 16, N-[4-[(4-cyanophenyl)amino]-6-[(2,6-dichlorophenyl)methyl]-1,3,5-triazin-2-yl]glycine] returned a CC50 in data set [1] (mock-infected MT-4 cells) of 79.9 µM.
Same read-out and setting: to `N#Cc1ccc(Nc2nc(Cc3c(Cl)cccc3Cl)nc(NO)n2)cc1` [Compound 33, 4-[[4-[(2,6-dichlorophenyl)methyl]-6-(hydroxyamino)-1,3,5-triazin-2-yl]amino]benzonitrile] belongs 14.1 µM.
